Data as given in ChEMBL document CHEMBL5252581, “Using a Bioactive Eremophila-Derived Serrulatane Scaffold to Generate a Unique Carbamate Library for Anti-infective Evaluations” (J Nat Prod, 2023).

What was measured:
[1] = Cytotoxicity against HEK293 cells assessed as inhibition of cell growth at 80 uM incubated for 72 hrs by alamar blue dye based fluorescence assay relative to control; type: toxicity; conditions: human
[2] = test system: Human immunodeficiency virus 1; assay: Reversal of HIV-1 latency infected in GFP-fused human J-Lat 10.6 cells assessed as inhibition of 160 nM PMA-induced HIV production at 100 ug/ml incubated for 24 hrs by flow cytometry analysis relative to control; type: functional; conditions: Human immunodeficiency virus 1, J-Lat 10.6
[3] = test system: Haemonchus contortus; assay: Anthelmintic activity against third stage larvae of Haemonchus contortus assessed as reduction in larval motility at 50 uM measured at 168 hrs by microscope based analysis relative to control; type: functional; design: scale not given: the % may be the effect or the level left
[4] = test system: Haemonchus contortus; assay: Anthelmintic activity against Haemonchus contortus assessed as induction of skinny phenotype at 50 uM measured at 168 hrs by microscope based analysis; type: functional
[5] = test system: Haemonchus contortus; assay: Anthelmintic activity against Haemonchus contortus assessed as inhibition of L4 development at 50 uM measured at 168 hrs by microscope based analysis relative to control; type: functional
[6] = test system: Haemonchus contortus; assay: Anthelmintic activity against third stage larvae of Haemonchus contortus assessed as reduction in larval motility measured at 168 hrs by microscope based analysis; type: functional, organism-based
[7] = test system: Plasmodium falciparum; assay: Antimalarial activity against multidrug resistant Plasmodium falciparum Dd2 assessed as parasite growth inhibition at 80 uM incubated for 72 hrs by DAPI staining method; type: functional
[8] = test system: Plasmodium falciparum; assay: Antimalarial activity against chloroquine sensitive Plasmodium falciparum 3D7 assessed as parasite growth inhibition at 80 uM incubated for 72 hrs by DAPI staining method; type: functional
[9] = Selectivity index, ratio of IC50 for cytotoxicity against HEK293 cells to IC50 for antimalarial activity against chloroquine sensitive Plasmodium falciparum 3D7; type: toxicity, cell-based; conditions: human, read-out: Ratio IC50
[10] = Selectivity index, ratio of IC50 for cytotoxicity against HEK293 cells to IC50 for antimalarial activity against multidrug resistant Plasmodium falciparum Dd2; type: toxicity, cell-based; conditions: human, read-out: Ratio IC50
[11] = test system: Plasmodium falciparum; assay: Antimalarial activity against chloroquine sensitive Plasmodium falciparum 3D7 assessed as parasite growth inhibition incubated for 72 hrs by DAPI staining method; type: functional, organism-based; conditions: 3D7, 72 h
[12] = Resistance index, ratio of IC50 for antimalarial activity against multidrug resistant Plasmodium falciparum Dd2 to IC50 for antimalarial activity against chloroquine sensitive Plasmodium falciparum 3D7; type: toxicity
[13] = test system: Plasmodium falciparum; assay: Antimalarial activity against multidrug resistant Plasmodium falciparum Dd2 assessed as parasite growth inhibition incubated for 72 hrs by DAPI staining method; type: functional, organism-based; conditions: Dd2, 72 h
[14] = test system: Human immunodeficiency virus 1; assay: Reversal of HIV-1 latency infected in GFP-fused human J-Lat 10.6 cells assessed as inhibition of 160 nM PMA-induced HIV production incubated for 24 hrs by flow cytometry analysis; type: functional, organism-based; conditions: Human immunodeficiency virus 1, J-Lat 10.6, 24 h
[15] = test system: Haemonchus contortus; assay: Anthelmintic activity against fourth stage larvae of Haemonchus contortus assessed as midbody width of L4 larvae measured after 7 days by microscopic analysis (reference value: 16.3+/-1.5 uM); type: functional; conditions: time 7 day
[16] = test system: Haemonchus contortus; assay: Anthelmintic activity against fourth stage larvae of Haemonchus contortus assessed as induction of skinny phenotype at 100 uM measured after 7 days relative to control; type: functional; conditions: time 7 day
[17] = test system: Haemonchus contortus; assay: Anthelmintic activity against fourth stage larvae of Haemonchus contortus assessed as induction of skinny phenotype measured after 7 days; type: functional, organism-based; conditions: 168 h
[18] = test system: Human immunodeficiency virus 1; assay: Reversal of HIV-1 latency infected in GFP-fused human J-Lat 10.6 cells assessed as inhibition of 50 nM PMA-induced HIV production by flow cytometry analysis; type: functional, organism-based; conditions: Human immunodeficiency virus 1, J-Lat 10.6

SMILES	inhibition at 72 h, 80 µM [1] [%]	inhibition at 100 µg/mL [2] [%]	Activity [3] [%]	Activity [4] [%]	inhibition at 50 µM [5] [%]	IC50 [6] [µM]	inhibition at 80 µM [7] [%]	inhibition at 80 µM [8] [%]	selectivity ratio [9]	selectivity ratio [10]	IC50 [11] [µM]	Ratio IC50 [12]	IC50 [13] [µM]	EC50 [14] [µM]	Activity [15] [µM]	Activity [16] [%]	IC50 [17] [µM]	EC50 [18] [µM]
CC(C)=CCC[C@H](C)[C@H]1c2cc(C(=O)O)c(O)c(O)c2[C@H](C)C[C@H]1O	8	< 10	16.9	0	4	3.6	< 41	< 41										
COC(=O)c1cc2c(c(OC)c1OC)[C@H](C)C[C@@H](OC(=O)Nc1ccccc1)[C@H]2[C@@H](C)CCC=C(C)C	47	29.3	9.6	0	4	> 50	> 41		6.9	6.3	11.6	1.1						
COC(=O)c1cc2c(c(OC)c1OC)[C@H](C)C[C@@H](OC(=O)Nc1ccc(C)cc1)[C@H]2[C@@H](C)CCC=C(C)C	12	36.8	12.9	0	2.3	7.1			6.6	6.2	12.2	1.1	12.9					
COC(=O)c1cc2c(c(OC)c1OC)[C@H](C)C[C@@H](OC(=O)NCc1ccccc1)[C@H]2[C@@H](C)CCC=C(C)C	24	< 10	44.7	0	-4.4	0.4	> 41	> 41										
COC(=O)c1cc2c(c(OC)c1OC)[C@H](C)C[C@@H](O)[C@H]2[C@@H](C)CCC=C(C)C	4	66.5	28.3	59.1	5.3	4.9	> 41	> 41						146	8.8	78.4	13.5	38.3
COC(=O)c1cc2c(c(OC)c1OC)[C@H](C)C[C@@H](OC(=O)Nc1ccc(C#N)cc1)[C@H]2[C@@H](C)CCC=C(C)C	2	59	6.8	1.7	12	9	< 41	< 41						96.7				
COC(=O)c1cc2c(c(OC)c1OC)[C@H](C)C[C@@H](OC(=O)NS(=O)(=O)c1ccc(C)cc1)[C@H]2[C@@H](C)CCC=C(C)C	11	20.7	15.6	67.5	21.7	6.2	> 41	> 41										
COC(=O)c1cc2c(c(OC)c1OC)[C@H](C)C[C@@H](OC(=O)Nc1ccc(Cl)cc1)[C@H]2[C@@H](C)CCC=C(C)C	3.1	31.7	26.4	0	2.5	1.8			6.9	6.1	11.7		13.2					
COC(=O)c1cc2c(c(OC)c1OC)[C@H](C)C[C@@H](OC(=O)Nc1ccc(F)cc1)[C@H]2[C@@H](C)CCC=C(C)C	25	28.7	36.2	0	3.2	31.6			9.2	7.4	8.7	1.2	10.8					
